Data taken from paper PMC9403976, “Elucidating the path to Plasmodium prolyl-tRNA synthetase inhibitors that overcome halofuginone resistance” (Nature Communications, 2022).
Where “and” joins values, the source holds several entries; their conditions need not be identical. Identical values can stand only once. Like-named read-outs stand apart in the source and are kept apart here.

Assays:
PfcProRS = target: T1, PfcProRS (Plasmodium falciparum, UniProt Q8I5R7); format: binding; conditions: for dose-response signal (normalized), SI Fig 8: single replicates; for Normalized response, dose-response replicates (SI Fig 14): replicates 1-3
T1 construct: made in house; host or cells: E. coli SoluBL-21

HsProRS = HsProRS (Homo sapiens, UniProt P07814); test: TR-FRET ligand displacement assay with tracer MAT379 (CoraFluor-1-Halo and anti-His6 antibody formats); format: binding; parameters: made in house; host or cells: E. coli SoluBL-21; conditions: for TR-FRET dose-response, normalized signal (SI Fig 11): individual replicates; for HsProRS % signal at 10 μM: no added proline/ATP (-)
P. falciparum Dd2-2D4 = test: P. falciparum asexual blood stage (ABS) growth assay, SYBR Green, 72 h, wild-type parasites; format: cell-based, Plasmodium falciparum; conditions: for EC50: Plasmodium falciparum, DD2, SI Fig 16b, values on -log scale, read-out: ABS - Dd2-2D4 (converted)
[1] = read-out: HsProRS IC50 + 100 μM proline, + 100 μM proline

HsProRS, sequence (P07814 996-1512): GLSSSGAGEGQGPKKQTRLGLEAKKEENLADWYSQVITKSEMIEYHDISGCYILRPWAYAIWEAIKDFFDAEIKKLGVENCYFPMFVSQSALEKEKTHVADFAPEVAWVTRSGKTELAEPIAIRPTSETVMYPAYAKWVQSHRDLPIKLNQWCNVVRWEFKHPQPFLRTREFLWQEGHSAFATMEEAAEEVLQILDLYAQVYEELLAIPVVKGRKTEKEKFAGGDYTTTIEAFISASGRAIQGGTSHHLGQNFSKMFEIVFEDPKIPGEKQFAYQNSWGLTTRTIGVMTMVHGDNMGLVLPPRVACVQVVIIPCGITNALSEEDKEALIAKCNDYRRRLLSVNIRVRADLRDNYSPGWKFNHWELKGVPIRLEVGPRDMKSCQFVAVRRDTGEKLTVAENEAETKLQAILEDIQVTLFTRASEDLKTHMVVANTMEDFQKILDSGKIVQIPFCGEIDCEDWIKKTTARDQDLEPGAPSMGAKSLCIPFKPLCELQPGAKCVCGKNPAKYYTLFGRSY
T1 sequence (Q8I5R7 249-746): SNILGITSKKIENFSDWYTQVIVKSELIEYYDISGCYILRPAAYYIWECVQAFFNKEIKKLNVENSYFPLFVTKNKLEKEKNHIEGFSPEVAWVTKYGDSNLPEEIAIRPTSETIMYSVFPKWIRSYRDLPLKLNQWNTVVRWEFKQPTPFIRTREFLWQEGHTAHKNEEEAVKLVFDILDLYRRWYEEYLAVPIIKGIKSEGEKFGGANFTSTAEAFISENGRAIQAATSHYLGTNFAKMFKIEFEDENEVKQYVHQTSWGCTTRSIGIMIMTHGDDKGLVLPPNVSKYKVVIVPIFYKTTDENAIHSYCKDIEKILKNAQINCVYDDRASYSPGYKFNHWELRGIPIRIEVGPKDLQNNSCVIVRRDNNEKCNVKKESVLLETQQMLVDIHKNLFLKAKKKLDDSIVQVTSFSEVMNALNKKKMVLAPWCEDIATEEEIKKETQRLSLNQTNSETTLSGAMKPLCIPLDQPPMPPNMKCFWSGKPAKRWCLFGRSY

For `O=C(O)CCCC(=O)Nc1nccnc1C(=O)NC1Cc2ccccc2C1` [compound 22], the “dose-response signal (normalized), SI Fig 8” value (PfcProRS; Log[inhibitor] (M) -5.000) was 9.06E-01 and 9.64E-01 and 8.26E-01, the “dose-response signal (normalized), SI Fig 8” value (PfcProRS; Log[inhibitor] (M) -5.301) was 1.01E+00 (2×) and 9.72E-01 and the “dose-response signal (normalized), SI Fig 8” value (PfcProRS; Log[inhibitor] (M) -5.601) was 9.26E-01 and 1.02E+00 and 9.22E-01. The “dose-response signal (normalized), SI Fig 8” value (PfcProRS; Log[inhibitor] (M) -5.904) was 9.72E-01 and 1.05E+00 and 1.09E+00, the “dose-response signal (normalized), SI Fig 8” value (PfcProRS; Log[inhibitor] (M) -6.208) was 1.07E+00 (2×) and 9.87E-01 and the “dose-response signal (normalized), SI Fig 8” value (PfcProRS; Log[inhibitor] (M) -6.509) was 1.07E+00 and 1.14E+00 and 1.02E+00. For the same compound, the “dose-response signal (normalized), SI Fig 8” value (PfcProRS; Log[inhibitor] (M) -6.796) was 9.89E-01 and 1.07E+00 and 9.33E-01, the “dose-response signal (normalized), SI Fig 8” value (PfcProRS; Log[inhibitor] (M) -7.108) was 1.06E+00 and 1.00E+00 and 1.02E+00 and the “dose-response signal (normalized), SI Fig 8” value (PfcProRS; Log[inhibitor] (M) -7.409) was 9.62E-01 and 1.08E+00 and 9.97E-01. The “dose-response signal (normalized), SI Fig 8” value (PfcProRS; Log[inhibitor] (M) -7.710) was 1.02E+00 and 9.90E-01 and 1.13E+00, the “dose-response signal (normalized), SI Fig 8” value (PfcProRS; Log[inhibitor] (M) -8.000) was 1.05E+00 (2×) and 1.10E+00 and the “dose-response signal (normalized), SI Fig 8” value (PfcProRS; Log[inhibitor] (M) -8.301) was 1.05E+00 and 1.11E+00 and 1.20E+00. For the same compound, the “dose-response signal (normalized), SI Fig 8” value (PfcProRS; Log[inhibitor] (M) -8.602) was 9.67E-01 and 1.09E+00 and 1.08E+00, the “dose-response signal (normalized), SI Fig 8” value (PfcProRS; Log[inhibitor] (M) -9.000) was 9.27E-01 and 1.05E+00 and 1.07E+00 and the “dose-response signal (normalized), SI Fig 8” value (PfcProRS; Log[inhibitor] (M) -9.301) was 1.08E+00 and 1.15E+00 and 9.88E-01. For the same compound, the IC50 (HsProRS) was > 10 µM, the “HsProRS % signal at 10 μM, + 100 μM proline” value (HsProRS; + 100 μM proline) was 79.2% and the “normalized TR-FRET ligand displacement signal, dose-response replicates (SI Fig 6)” value (HsProRS; Log[inhibitor] (M) -5.000) was 6.88E-01 and 7.76E-01 and 7.44E-01. For the same compound, the “TR-FRET dose-response, normalized signal (SI Fig 11)” value (HsProRS; Log[inhibitor] (M) -5.000) was 7.43E-01 and 6.59E-01 and 7.38E-01, the “normalized TR-FRET ligand displacement signal, dose-response replicates (SI Fig 6)” value (HsProRS; Log[inhibitor] (M) -5.301) was 8.82E-01 (2×) and 7.80E-01 and the “TR-FRET dose-response, normalized signal (SI Fig 11)” value (HsProRS; Log[inhibitor] (M) -5.301) was 8.33E-01 and 8.41E-01 and 8.52E-01. For the same compound, the “normalized TR-FRET ligand displacement signal, dose-response replicates (SI Fig 6)” value (HsProRS; Log[inhibitor] (M) -5.601) was 8.80E-01 and 9.45E-01 and 8.65E-01, the “TR-FRET dose-response, normalized signal (SI Fig 11)” value (HsProRS; Log[inhibitor] (M) -5.601) was 9.39E-01 and 8.79E-01 and 9.13E-01 and the “normalized TR-FRET ligand displacement signal, dose-response replicates (SI Fig 6)” value (HsProRS; Log[inhibitor] (M) -5.904) was 1.02E+00 and 1.06E+00 and 9.13E-01. For the same compound, the “TR-FRET dose-response, normalized signal (SI Fig 11)” value (HsProRS; Log[inhibitor] (M) -5.904) was 9.47E-01 and 9.57E-01 and 9.01E-01, the “normalized TR-FRET ligand displacement signal, dose-response replicates (SI Fig 6)” value (HsProRS; Log[inhibitor] (M) -6.208) was 1.04E+00 and 1.02E+00 and 9.07E-01 and the “TR-FRET dose-response, normalized signal (SI Fig 11)” value (HsProRS; Log[inhibitor] (M) -6.208) was 1.02E+00 and 9.48E-01 and 9.47E-01. The “normalized TR-FRET ligand displacement signal, dose-response replicates (SI Fig 6)” value (HsProRS; Log[inhibitor] (M) -6.509) was 8.91E-01 and 9.55E-01 and 1.01E+00, the “TR-FRET dose-response, normalized signal (SI Fig 11)” value (HsProRS; Log[inhibitor] (M) -6.509) was 9.53E-01 and 9.49E-01 and 9.29E-01 and the “normalized TR-FRET ligand displacement signal, dose-response replicates (SI Fig 6)” value (HsProRS; Log[inhibitor] (M) -6.796) was 1.03E+00 and 1.02E+00 and 9.73E-01. For the same compound, the “TR-FRET dose-response, normalized signal (SI Fig 11)” value (HsProRS; Log[inhibitor] (M) -6.796) was 9.39E-01 and 9.96E-01 and 9.21E-01, the “normalized TR-FRET ligand displacement signal, dose-response replicates (SI Fig 6)” value (HsProRS; Log[inhibitor] (M) -7.108) was 1.09E+00 and 9.83E-01 and 1.08E+00 and the “TR-FRET dose-response, normalized signal (SI Fig 11)” value (HsProRS; Log[inhibitor] (M) -7.108) was 9.39E-01 and 9.94E-01 and 9.05E-01. For the same compound, the “normalized TR-FRET ligand displacement signal, dose-response replicates (SI Fig 6)” value (HsProRS; Log[inhibitor] (M) -7.409) was 9.62E-01 and 1.05E+00 and 9.54E-01, the “TR-FRET dose-response, normalized signal (SI Fig 11)” value (HsProRS; Log[inhibitor] (M) -7.409) was 9.56E-01 and 9.55E-01 and 9.01E-01 and the “normalized TR-FRET ligand displacement signal, dose-response replicates (SI Fig 6)” value (HsProRS; Log[inhibitor] (M) -7.710) was 9.45E-01 and 1.01E+00 and 9.79E-01. The “TR-FRET dose-response, normalized signal (SI Fig 11)” value (HsProRS; Log[inhibitor] (M) -7.710) was 9.86E-01 and 9.70E-01 and 9.64E-01, the “normalized TR-FRET ligand displacement signal, dose-response replicates (SI Fig 6)” value (HsProRS; Log[inhibitor] (M) -8.000) was 1.07E+00 and 1.06E+00 and 9.51E-01 and the “TR-FRET dose-response, normalized signal (SI Fig 11)” value (HsProRS; Log[inhibitor] (M) -8.000) was 9.84E-01 and 9.81E-01 and 9.67E-01. The “normalized TR-FRET ligand displacement signal, dose-response replicates (SI Fig 6)” value (HsProRS; Log[inhibitor] (M) -8.301) was 9.49E-01 and 8.91E-01 and 8.92E-01, the “TR-FRET dose-response, normalized signal (SI Fig 11)” value (HsProRS; Log[inhibitor] (M) -8.301) was 9.40E-01 and 1.01E+00 and 9.29E-01 and the “normalized TR-FRET ligand displacement signal, dose-response replicates (SI Fig 6)” value (HsProRS; Log[inhibitor] (M) -8.602) was 9.06E-01 and 1.02E+00 and 1.07E+00. The “TR-FRET dose-response, normalized signal (SI Fig 11)” value (HsProRS; Log[inhibitor] (M) -8.602) was 9.70E-01 and 9.81E-01 and 9.77E-01, the “normalized TR-FRET ligand displacement signal, dose-response replicates (SI Fig 6)” value (HsProRS; Log[inhibitor] (M) -9.000) was 1.02E+00 and 8.38E-01 and 9.71E-01 and the “TR-FRET dose-response, normalized signal (SI Fig 11)” value (HsProRS; Log[inhibitor] (M) -9.000) was 1.01E+00 and 9.79E-01 and 9.47E-01. The “normalized TR-FRET ligand displacement signal, dose-response replicates (SI Fig 6)” value (HsProRS; Log[inhibitor] (M) -9.301) was 9.40E-01 and 9.94E-01 and 9.82E-01, the “TR-FRET dose-response, normalized signal (SI Fig 11)” value (HsProRS; Log[inhibitor] (M) -9.301) was 9.53E-01 and 9.63E-01 and 8.99E-01 and the “HsProRS % signal at 10 μM” value (HsProRS) was 71.3%. For the same compound, the IC50 (HsProRS; [1]) was > 10 µM, the “dose-response value per replicate (SI Fig 2g)” value (P. falciparum Dd2-2D4; Log[inhibitor] (M) -7.408) was 111 and the EC50 (P. falciparum Dd2-2D4) was 12.3 µM.

`Nc1nccnc1C(=O)NC1Cc2ccccc2C1` [compound 45] was tested, and the “Normalized response, dose-response replicates (SI Fig 14)” value (“Normalized response” for short) (PfcProRS; Log[inhibitor] (M) -5.000) was 9.00E-01 and 8.01E-01 and 8.09E-01, the “Normalized response” value (PfcProRS; Log[inhibitor] (M) -5.301) was 8.40E-01 and 9.11E-01 and 9.42E-01 and the “Normalized response” value (PfcProRS; Log[inhibitor] (M) -5.601) was 1.06E+00 and 1.02E+00 and 9.65E-01. For the same compound, the “Normalized response” value (PfcProRS; Log[inhibitor] (M) -5.904) was 1.09E+00 (2×) and 1.04E+00, the “Normalized response” value (PfcProRS; Log[inhibitor] (M) -6.208) was 9.29E-01 and 9.65E-01 and 9.12E-01 and the “Normalized response” value (PfcProRS; Log[inhibitor] (M) -6.509) was 8.69E-01 and 9.97E-01 and 9.91E-01. The “Normalized response” value (PfcProRS; Log[inhibitor] (M) -6.796) was 1.07E+00 and 1.10E+00 and 9.29E-01, the “Normalized response” value (PfcProRS; Log[inhibitor] (M) -7.108) was 1.07E+00 and 1.01E+00 and 9.62E-01 and the “Normalized response” value (PfcProRS; Log[inhibitor] (M) -7.409) was 8.73E-01 and 9.86E-01 and 1.07E+00. The “Normalized response” value (PfcProRS; Log[inhibitor] (M) -7.710) was 9.54E-01 and 1.09E+00 and 1.02E+00, the “Normalized response” value (PfcProRS; Log[inhibitor] (M) -8.000) was 9.85E-01 and 1.09E+00 and 1.00E+00 and the “Normalized response” value (PfcProRS; Log[inhibitor] (M) -8.301) was 1.09E+00 and 9.49E-01 and 9.81E-01. The “Normalized response” value (PfcProRS; Log[inhibitor] (M) -8.602) was 1.13E+00 and 9.21E-01 and 9.56E-01, the “Normalized response” value (PfcProRS; Log[inhibitor] (M) -9.000) was 1.01E+00 and 9.94E-01 and 8.80E-01 and the “Normalized response” value (PfcProRS; Log[inhibitor] (M) -9.301) was 9.92E-01 (2×) and 9.81E-01. For the same compound, the IC50 (HsProRS) was > 10 µM, the “HsProRS % signal at 10 μM, + 100 μM proline” value (HsProRS; + 100 μM proline) was 83.7% and the “HsProRS % signal at 10 μM” value (HsProRS) was 90.2%. For the same compound, the IC50 (HsProRS; [1]) was > 10 µM and the EC50 (P. falciparum Dd2-2D4) was 13.6 µM.
